For data set [1], the target named is T1, Alpha-1B adrenergic receptor (Homo sapiens, UniProt P35368).
T1 sequence (P35368 whole entry): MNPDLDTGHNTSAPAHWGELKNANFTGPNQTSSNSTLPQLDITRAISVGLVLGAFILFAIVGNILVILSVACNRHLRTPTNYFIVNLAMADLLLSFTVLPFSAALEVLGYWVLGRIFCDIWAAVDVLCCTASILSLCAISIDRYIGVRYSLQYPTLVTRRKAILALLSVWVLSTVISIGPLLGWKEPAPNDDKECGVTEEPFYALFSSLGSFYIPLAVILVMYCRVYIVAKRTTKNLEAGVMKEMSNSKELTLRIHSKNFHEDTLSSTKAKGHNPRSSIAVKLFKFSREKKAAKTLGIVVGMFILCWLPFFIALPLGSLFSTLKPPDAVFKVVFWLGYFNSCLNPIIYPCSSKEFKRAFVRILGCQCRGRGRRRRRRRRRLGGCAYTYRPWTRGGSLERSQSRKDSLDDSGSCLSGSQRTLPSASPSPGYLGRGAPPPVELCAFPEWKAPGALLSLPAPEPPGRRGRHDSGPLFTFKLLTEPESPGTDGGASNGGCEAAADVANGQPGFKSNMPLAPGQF
As to the kind of experiment: Antagonist activity at adrenergic alpha1B receptor (unknown origin) expressed in Rat1 cells assessed as inhibition of phenylephrine-induced Ca2+ flux preincubated for 30 mins followed by phenylephrine addition by Fluo-4-AM-dye based FLIPR assay. Format: cell-based. (In general: A change in cytosolic calcium serves as a functional read-out for many receptors and channels.)

For data set [2], the target named is Histamine H3 receptor (Homo sapiens, UniProt Q9Y5N1). Briefly: Antagonist activity at human Histamine H3 receptor expressed in CHO cell membranes assessed as inhibition of histamine-induced [35S]GTPgammaS binding after 2 to 6 hrs by scintillation proximity assay. Format: functional. In general terms: Binding of GTPγS marks nucleotide exchange on a G protein.

Data set [3] addresses T2, Alpha-1A adrenergic receptor (Homo sapiens, UniProt P35348).
T2 sequence (P35348 whole entry): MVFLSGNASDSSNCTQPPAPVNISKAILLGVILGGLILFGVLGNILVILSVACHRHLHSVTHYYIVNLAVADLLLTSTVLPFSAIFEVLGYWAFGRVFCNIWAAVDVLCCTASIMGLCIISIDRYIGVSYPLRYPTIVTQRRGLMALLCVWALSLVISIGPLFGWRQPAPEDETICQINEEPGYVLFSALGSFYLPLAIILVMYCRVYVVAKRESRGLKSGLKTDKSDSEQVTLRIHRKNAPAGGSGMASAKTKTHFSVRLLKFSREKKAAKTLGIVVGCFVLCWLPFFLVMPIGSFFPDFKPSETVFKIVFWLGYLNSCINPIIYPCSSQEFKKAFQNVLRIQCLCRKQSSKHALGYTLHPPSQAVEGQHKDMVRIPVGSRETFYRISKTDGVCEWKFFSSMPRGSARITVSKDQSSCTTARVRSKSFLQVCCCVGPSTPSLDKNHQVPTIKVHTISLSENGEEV
Briefly: Antagonist activity at adrenergic alpha1A receptor (unknown origin) expressed in Rat1 cells assessed as inhibition of phenylephrine-induced Ca2+ flux preincubated for 30 mins followed by phenylephrine addition by Fluo-4-AM-dye based FLIPR assay. Format: cell-based.

In data set [4] the target is Voltage-gated inwardly rectifying potassium channel KCNH2 (Homo sapiens, UniProt Q12809). As to the kind of experiment: (§1) Displacement of [3H]-dofetilide from human ERG expressed in CHOK1 cell membranes incubated for 4 hrs in dark by luminescent assay. Details: species or system CHO-K1.
The nature of data set [5]: Lipophilicity, logD of compound at pH 7.4. The format is physicochemical. The following applies: buffer.
The target in data set [6] is T3, Histamine H1 receptor (Homo sapiens, UniProt P35367). As to the kind of experiment: Antagonist activity at human Histamine H1 receptor expressed in CHO cells assessed as inhibition of histamine-induced calcium flux preincubated for 30 mins followed by histamine addition by Fluo-4-AM dye based FLIPR assay. The format is functional, cell-based.
In data set [7] the target is hERG (KCNH2) (Homo sapiens, UniProt Q12809). The description is as §1. Also noted: species or system CHO-K1. Particulars: human, CHO-K1 cell membranes expressing human ERG, probe [3H]-dofetilide.
For data set [8], the target named is T3, Histamine H1 receptor. Briefly: Antagonist activity at human Histamine H1 receptor expressed in CHO cells preincubated for 30 mins prior to histamine addition followed by subsequent washout and histamine challenge at 90 mins by Fluo-4 dye based FLIPR assay relative to azelastine. Format: cell-based.
Data set [9] concerns the target T3, Histamine H1 receptor. Briefly: Antagonist activity at human Histamine H1 receptor expressed in CHO cells preincubated for 30 mins prior to histamine addition followed by subsequent washout and histamine challenge at 270 mins by Fluo-4 dye based FLIPR assay relative to azelastine. Format: cell-based.
A short description of data set [10]: Ratio of drug level in brain to plasma in rat. Format: ADME. Particulars: brain and plasma, read-out: BPR.
Data set [11] addresses T3, Histamine H1 receptor. As to the kind of experiment: Antagonist activity at human Histamine H1 receptor expressed in CHO cells assessed as inhibition of histamine-induced calcium flux at 100 nM preincubated for 30 mins followed by histamine addition by Fluo-4-AM dye based FLIPR assay. Format: functional, cell-based. Particulars: read-out: pA2 (converted).

pIC50, pKi: −log10 of the molar value. The source made the active and inactive calls. The rule behind the calls is not given here.

T3 sequence (P35367 whole entry): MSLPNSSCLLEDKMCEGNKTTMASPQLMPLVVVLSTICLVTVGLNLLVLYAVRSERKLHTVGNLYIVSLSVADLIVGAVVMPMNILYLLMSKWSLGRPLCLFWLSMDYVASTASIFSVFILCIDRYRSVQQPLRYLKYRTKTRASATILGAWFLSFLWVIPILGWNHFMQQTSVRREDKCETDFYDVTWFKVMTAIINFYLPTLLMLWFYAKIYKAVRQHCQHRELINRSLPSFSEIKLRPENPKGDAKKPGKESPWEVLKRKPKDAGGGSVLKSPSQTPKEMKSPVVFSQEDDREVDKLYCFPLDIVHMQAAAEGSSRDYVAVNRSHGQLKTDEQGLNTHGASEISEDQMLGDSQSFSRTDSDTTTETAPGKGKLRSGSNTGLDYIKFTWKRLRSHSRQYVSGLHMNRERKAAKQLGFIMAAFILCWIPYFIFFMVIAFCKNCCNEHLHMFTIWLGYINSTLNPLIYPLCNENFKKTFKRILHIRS
Chain of Voltage-gated inwardly rectifying potassium channel KCNH2 (Q12809 whole entry): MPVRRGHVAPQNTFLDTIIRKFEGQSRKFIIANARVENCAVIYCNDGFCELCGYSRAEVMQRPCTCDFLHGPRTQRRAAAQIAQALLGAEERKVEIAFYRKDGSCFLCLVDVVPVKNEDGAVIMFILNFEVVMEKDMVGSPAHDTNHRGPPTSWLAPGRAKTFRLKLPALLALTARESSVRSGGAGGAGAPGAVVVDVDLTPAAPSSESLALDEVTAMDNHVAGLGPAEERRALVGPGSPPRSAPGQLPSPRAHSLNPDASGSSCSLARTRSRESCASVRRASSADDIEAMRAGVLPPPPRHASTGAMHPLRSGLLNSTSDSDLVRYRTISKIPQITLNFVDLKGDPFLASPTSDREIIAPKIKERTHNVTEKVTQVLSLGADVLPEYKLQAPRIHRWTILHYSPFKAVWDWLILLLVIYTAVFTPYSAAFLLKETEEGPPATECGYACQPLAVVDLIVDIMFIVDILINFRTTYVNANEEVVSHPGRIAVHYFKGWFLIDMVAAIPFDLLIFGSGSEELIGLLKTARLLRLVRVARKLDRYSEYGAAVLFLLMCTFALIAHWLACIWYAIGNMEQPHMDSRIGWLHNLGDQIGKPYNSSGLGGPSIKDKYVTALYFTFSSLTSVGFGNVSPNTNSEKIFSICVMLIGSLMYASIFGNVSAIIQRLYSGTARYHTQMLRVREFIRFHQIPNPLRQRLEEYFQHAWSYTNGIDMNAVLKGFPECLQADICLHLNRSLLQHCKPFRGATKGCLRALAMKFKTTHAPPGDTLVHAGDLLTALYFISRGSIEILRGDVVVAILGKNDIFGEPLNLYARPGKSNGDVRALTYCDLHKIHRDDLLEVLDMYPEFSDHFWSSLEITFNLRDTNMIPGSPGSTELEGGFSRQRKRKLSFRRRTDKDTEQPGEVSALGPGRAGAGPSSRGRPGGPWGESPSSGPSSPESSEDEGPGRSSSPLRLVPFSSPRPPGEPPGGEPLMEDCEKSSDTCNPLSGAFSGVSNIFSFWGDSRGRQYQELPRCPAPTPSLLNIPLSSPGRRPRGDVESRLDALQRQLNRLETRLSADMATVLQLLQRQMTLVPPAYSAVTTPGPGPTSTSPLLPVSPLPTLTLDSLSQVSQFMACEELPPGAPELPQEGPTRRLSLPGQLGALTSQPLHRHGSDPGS
Chain of Histamine H3 receptor (Q9Y5N1 whole entry): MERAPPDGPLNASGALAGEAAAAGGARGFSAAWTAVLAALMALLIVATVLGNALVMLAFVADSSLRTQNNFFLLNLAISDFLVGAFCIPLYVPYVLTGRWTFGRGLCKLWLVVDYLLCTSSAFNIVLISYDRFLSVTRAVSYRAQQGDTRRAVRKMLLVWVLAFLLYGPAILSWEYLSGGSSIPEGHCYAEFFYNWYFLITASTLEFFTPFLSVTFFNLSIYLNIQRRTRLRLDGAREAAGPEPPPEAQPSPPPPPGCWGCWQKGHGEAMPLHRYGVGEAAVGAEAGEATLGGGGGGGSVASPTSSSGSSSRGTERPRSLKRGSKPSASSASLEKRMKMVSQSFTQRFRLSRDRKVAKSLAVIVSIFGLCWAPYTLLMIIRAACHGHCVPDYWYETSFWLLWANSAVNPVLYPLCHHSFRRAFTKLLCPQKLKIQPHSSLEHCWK
Chain of hERG (KCNH2) (Q12809 whole entry): as the sequence (Q12809 whole entry) above

As usually defined, the pKi is −log10 of the Ki, conventionally taken in molar units. What is called pIC50 is the negative decadic logarithm of the IC50, by convention in mol/L. For orientation: logD means lipophilicity at a set pH, counting ionised and neutral species. The low end stands for a more hydrophilic compound, the high end for a more lipophilic compound. For `O=C(O)c1ccnc2c(N3CCN(CCc4ccc(OCCCN5CCCCCC5)cc4)CC3)cccc12`, the pKi in [1] is < 5.70; in data set [2] it was 8.80; in data set [3], < 5.70; in [6], < 5.60. Besides, the pIC50 in [4] was < 4.20. Also, in [5], the logD is -0.24.

Take `O=C(O)c1ccc2cccc(N3CCN(CCc4ccc(OCCCN5CCCCCC5)cc4)CC3)c2n1`: the pKi was < 5.70 in data set [1], 9.30 in data set [2], < 5.70 in [3] and 6.60 in data set [6]. The logD in [5] is -0.37.

As usually defined, the IC50 is the concentration needed to halve the response being measured. Read a high IC50 as weaker potency in that assay. In turn, `O=c1c2ccccc2c(Cc2ccc(Cl)cc2)nn1C[C@H]1CCCN1CCCCc1ccc(OCCCN2CCCCCC2)cc1` [GSK-1004723] showed an IC50 at 4 h in data set [7] of 50.1 nM. Also, the inhibition result in data set [8] and in [9] was “Active” in each case.

For the compound `O=C(O)CCc1ccc2cc(Cc3ccccc3)cc(N3CCN(CCc4ccc(OCCCN5CCCCCC5)cc4)CC3)c2n1`, the negative-log Ki (pKi) in [1] is 6.60; in [2], 9.50; in [3], 7.30; in [6], 7.60. Moreover, the Kp in data set [10] was found to be 0.15. For the same compound, the pIC50 in data set [4] was 5.20. This compound had a logD in data set [5] of 1.9. For the same compound, in data set [8], the inhibition result was “Active”. For the same compound, in data set [11], the Kb was 6.31 nM.

In the case of `O=C(O)c1cnc2c(N3CCN(CCc4ccc(OCCCN5CCCCCC5)cc4)CC3)cccc2c1`, the pKi is < 5.70 in [1], 8.80 in [2], < 5.70 in [3] and 6.40 in [6]. This compound had a pIC50 in data set [4] of 4.70. In addition, the logD in data set [5] is -0.78.

Turning to `O=C(O)CCc1ccc2cccc(N3CCN(CCc4ccc(OCCCN5CCCCCC5)cc4)CC3)c2n1`, the pKi in data set [1] is 6.70; in data set [2] it was 8.80; in data set [3] it was < 5.70; in data set [6], 7.90. In addition, the pIC50 in data set [4] is 4.80. This compound also showed a log distribution coefficient (logD) in data set [5] of 0.18.

As for `CCc1cc(N2CCN(CCc3ccc(OCCCN4CCCCCC4)cc3)CC2)c2nc(CCC(=O)O)ccc2c1`, the pKi in [1] is < 5.70; in data set [2], 8.70; in [3], 6.60; in data set [6], 7.80. In data set [5], this compound displayed a logD of 1. Moreover, the Kb in data set [11] is 2.51 nM.

`O=C(O)c1ccc2cccnc2c1N1CCN(CCc2ccc(OCCCN3CCCCCC3)cc2)CC1`: the pKi in data set [1] was < 5.70; in data set [2] it was 8.90; in data set [3], < 5.70; in data set [6], < 5.60. Further, in data set [5], the logD was -0.12.

`O=C(O)/C=C/c1ccc2cccc(N3CCN(CCc4ccc(OCCCN5CCCCCC5)cc4)CC3)c2n1`: the pKi was 7.10 in data set [1], 8.80 in data set [2], 7.20 in data set [3] and 6.70 in [6]. In data set [4], the pIC50 was < 4.20. Further, the logD in data set [5] was determined as 0.34.

With `O=C(O)CCc1cnc2c(N3CCN(CCc4ccc(OCCCN5CCCCCC5)cc4)CC3)cccc2c1`, the pKi in [1] was < 5.70; in [2] it was 8.90; in [3], < 5.70; in data set [6] it was 7.40. The pIC50 in [4] was 4.50. Further, in data set [5], the logD was -0.63.

Turning to `c1cnc2c(N3CCN(CCCCc4ccc(OCCCN5CCCCCC5)cc4)CC3)cccc2c1`, the pKi is 7.30 in data set [1], 9.20 in data set [2], 7.10 in data set [3] and 7.80 in data set [6]. Further, the pIC50 in data set [4] was 5.80. This compound also gave a logD in [5] of 2.2. Besides, the inhibition entry in [8] and in data set [9] was “Active” each time. In addition, in data set [11], the Kb was 5.01 nM.

In the case of `CCCCc1cc(N2CCN(CCc3ccc(OCCCN4CCCCCC4)cc3)CC2)c2nc(CCC(=O)O)ccc2c1`, the pKi in [1] is 6.40; in data set [2] it was 9.10; in data set [3] it was 6.50; in [6], 7.90. This compound also showed a pIC50 in [4] of 5.60. This compound yielded a logD in [5] of 2.3. In [11], the Kb was 1.58 nM.

Take `O=C(O)c1cc(N2CCN(CCc3ccc(OCCCN4CCCCCC4)cc3)CC2)c2ncccc2c1`: the pKi in [1] is < 5.70; in data set [2] it was 8.70; in [3], < 5.70; in [6], < 5.60. In data set [4], the pIC50 was 4.40. Besides, in [5], the logD is -1.

For `c1cnc2c(N3CCN(CCCc4ccc(OCCCN5CCCCCC5)cc4)CC3)cccc2c1`, the pKi in data set [1] is 7.00; in [2], 9.40; in data set [3], 7.50; in [6], 7.10. Besides, the pIC50 in [4] was 6.00. For the same compound, the logD in data set [5] was determined as 1.8.

Turning to `c1cnc2c(N3CCN(CCc4ccc(OCCCN5CCCCCC5)cc4)CC3)cccc2c1`, the pKi is 7.80 in data set [1], 9.30 in data set [2], 8.10 in [3] and 7.70 in data set [6]. Further, in data set [10], the Kp was > 13. In [4], this compound showed a negative logarithm of the IC50 (pIC50) of 5.10. In addition, the logD in data set [5] came to 1.9. The inhibition entry in data set [8] and in data set [9] was “Active” in each case. In addition, the Kb in [11] is 10 nM.

For the origin of these results see ChEMBL document CHEMBL3870336, “The discovery of quinoline based single-ligand human H1 and H3 receptor antagonists” (Bioorg Med Chem Lett, 2016).
